In patent publication US7834242B2, “S-adenosyl-L-methionine synthetase promoter and its use in expression of transgenic genes in plants” (E. I. du Pont de Nemours and Company, priority 2003, dated 2010):

How the values were obtained:
soybean plants = assay: Spray test for tolerance to SU herbicide; format: in vivo; settings: 60 grams active ingredient per hectare
Description: Soybean plants, transformed with either pZSL13 or pZSL14, were tested for tolerance to SU herbicide. A spray solution was made containing 60 grams of Thifensulfuron-methyl active ingredient per hectare and 0.25% wt/wt of AL-2999 nonionic surfactant. Thifensulfuron-methyl has the chemical name, methyl 3-[[[[(4-methoxy-6-methyl-1,3,5-triazin-2-yl)amino]carbonyl]amino]sulfonyl]-2-thiophenecarboxylate, and is the active ingredient in the two DuPont sulfonylurea herbicides, HARMONY GT® and PINNACLE®. Either HARMONY GT® or PINNACLE® can be used as the source of this sulfonylurea for the spray test. AL-2999 is a nonionic surfactant, obtainable as ATPLUS UCL 1007® from Uniqema. This mixture was evenly sprayed onto the soybean plants at the 1st or 2nd trifoliate stage of development. After waiting approximately two weeks the results were scored. All wild-type plants (or plants lacking the SAMS:herbicide-resistant ALS transgene) were dead (negative control), all plants from commercially available STS® (Sulfonylurea Tolerant Soybean) seeds were alive (positive control), and plants containing the SAMS:herbicide-resistant ALS transgene from either pZSL13 or pZSL14 also survived. Consequently, either the 1.3-kb (SEQ ID NO:6) or the 2.1-kb (SEQ ID NO:14) fragment from the SAMS gene can drive expression of the mutant ALS gene at levels sufficient to provide tolerance to SU.

SAMS promoter = assay: Induction of SAMS promoter activity by methionine (GUS activity of SAMS::GUS seedlings); format: in vivo, Arabidopsis
Description: (§1) To see if SAMS promoter is regulated by external methionine, the SAMS::GUS transgenic Arabidopsis seeds were germinated in the presence of either H2O, 1× Murashige and Skoog salt (GIBCO BRL), 0.01 mM methionine (Sigma), or 1 mM methionine. Ten days old seedlings from ten independent transgenic lines were analyzed for GUS activity according to the protocol described in Example 5.

Arabidopsis seeds = tested on: Arabidopsis seeds
Description: as §1

[1] = tested on: transgenic Arabidopsis plants; assay: Fluorometric GUS assay of SAMS::GUS transgenic plants; format: in vivo, Arabidopsis thaliana; settings: developing seeds of SAMS::GUS Arabidopsis
Description: FIG. 5 depicts a fluorometric GUS expression assay of transgenic Arabidopsis plants harboring the SAMS::GUS expression cassette. Triple samples of flowers, leaves, stems, siliques coats, young seeds, medium seeds, old seeds, and dry seeds collected from SAMS::GUS transgenic Arabidopsis plants were assayed for GUS activity. The graph was generated by Microsoft Excel and the standard deviation is indicated by the upper part of each column.
The activity of the soybean SAMS promoter was tested by its ability to express the GUS reporter gene in transgenic Arabidopsis plants carrying the SAMS promoter::GUS::3′ Nos expression casstette. […]
The GUS activities of the transgenic Arabidopsis plants were further analyzed by a fluorometric assay. For fluorescence analysis, plant tissues were ground in microfuge tubes with extraction buffer, 50 mM phosphate buffer, pH 7.0, 10 mM EDTA, 0.1% Triton X-100, 0.1% N-lauroyl sarcosine, and 10 mM β-mercaptoethanol, to homogeneity. The samples were centrifuged at 14,000 rpm for 10 minutes, and aliquots of the supernatant were used to determine protein concentrations by the Bradford method (Bio-Rad, Hercules, Calif.) using 96 well microtiter plates read with a kinetic microplate reader (Molecular Devices, Sunnyvale, Calif.). […] Data were entered into a Microsoft Excel spread sheet and analyzed. […]

## COC(=O)c1sccc1S(=O)(=O)NC(=O)Nc1nc(C)nc(OC)n1 [Thifensulfuron-methyl, methyl 3-[[[[(4-methoxy-6-methyl-1,3,5-triazin-2-yl)amino]carbonyl]amino]sulfonyl]-2-thiophenecarboxylate]
Soybean plants; plants containing SAMS:herbicide-resistant ALS transgene from pZSL13 or pZSL14, approximately two weeks
  Plant survival after spray: survived
Soybean plants; plants from commercially available STS seeds, approximately two weeks
  Plant survival after spray: alive
Soybean plants; wild-type plants (lacking transgene), 0.25% AL-2999, scored after approximately two weeks
  Plant survival after spray: dead

## CSCC[C@H](N)C(=O)O [methionine]
SAMS promoter; 0.01 mM free methionine, ten days old seedlings, ten transgenic lines
  SAMS activity induced (GUS activity) compared to H2O treatment: more than two-fold
SAMS promoter; 1 mM methionine
  Induction effect of SAMS promoter: less than that by 0.01 mM methionine
Arabidopsis seeds; 1 mM methionine
  Toxic effect on seedlings: smaller sizes and shorter roots of the seedlings
Arabidopsis seeds; 10 mM free methionine
  Toxic effect on germination and survival: only a few Arabidopsis seeds were able to germinate and none survived

B1: SAMS promoter: soybean S-adenosyl-L-methionine synthetase promoter fragment, 1314 bp, SEQ ID NO:6 (nucleic acid)
DNA: TCTAGATCAAACTCACATCCAAACATAACATGGATATCTCCTTACCAATCATACTAATTATTTTGGGTTAAATATTAATCATTATTTTTAAGATATTAATTAAGAAATTAAAAGATTTTTTAAAAAAATGTATAAAATTATATTATTCATGATTTTTCATACATTTGATTTTGATAATAAATATATTTTTTTTAATTTCTTAAAAAATGTTGCAAGACACTTATTAGACATAGTCTTGTTCTGTTTACAAAAGCATTCATCATTTAATACATTAAAAAATATTTAATACTAACAGTAGAATCTTCTTGTGAGTGGTGTGGGAGTAGGCAACCTGGCATTGAAACGAGAGAAAGAGAGTCAGAACCAGAAGACAAATAAAAAGTATGCAACAAACAAATCAAAATCAAAGGGCAAAGGCTGGGGTTGGCTCAATTGGTTGCTACATTCAATTTTCAACTCAGTCAACGGTTGAGATTCACTCTGACTTCCCCAATCTAAGCCGCGGATGCAAACGGTTGAATCTAACCCACAATCCAATCTCGTTACTTAGGGGCTTTTCCGTCATTAACTCACCCCTGCCACCCGGTTTCCCTATAAATTGGAACTCAATGCTCCCCTCTAAACTCGTATCGCTTCAGAGTTGAGACCAAGACACACTCGTTCATATATCTCTCTGCTCTTCTCTTCTCTTCTACCTCTCAAGGTACTTTTCTTCTCCCTCTACCAAATCCTAGATTCCGTGGTTCAATTTCGGATCTTGCACTTCTGGTTTGCTTTGCCTTGCTTTTTCCTCAACTGGGTCCATCTAGGATCCATGTGAAACTCTACTCTTTCTTTAATATCTGCGGAATACGCGTTGGACTTTCAGATCTAGTCGAAATCATTTCATAATTGCCTTTCTTTCTTTTAGCTTATGAGAAATAAAATCATTTTTTTTTATTTCAAAATAAACCTTGGGCCTTGTGCTGACTGAGATGGGGTTTGGTGATTACAGAATTTTAGCGAATTTTGTAATTGTACTTGTTTGTCTGTAGTTTTGTTTTGTTTTCTTGTTTCTCATACATTCCTTAGGCTTCAATTTTATTCGAGTATAGGTCACAATAGGAATTCAAACTTTGAGCAGGGGAATTAATCCCTTCCTTCAAATCCAGTTTGTTTGTATATATGTTTAAAAAATGAAACTTTTGCTTTAAATTCTATTATAACTTTTTTTATGGCAAAAATTTTTGCATGTGTCTTTGCTCTCCTGTTGTAAATTTACTGTTTAGGTACTAACTCTAGGCTTGTTGTGCAGTTTTTGAAGTATAACCATGG
modifications: Glycine max
[1]
  GUS specific activities: 5-40 pmole 4-Mu (4-methylumbelliferone) per microgram protein per minute
